Several values for one entry are separate records, joined by “and”; a condition that tells them apart may be missing. Equal values may be shown once. Entries after “also recorded” stand apart in the source; their conditions may differ. Read-outs that look alike come from different tables or passages of the source. Blank lines part the entries; values can stand above or below the compound they belong to.
How the values were obtained:
[1] = tested on: P. falciparum FcB1-Colombia (chloroquine resistant strain); assay: Anti-malarial activity on P. falciparum FcB1-Colombia strain, tritiated hypoxanthine incorporation; type: cell-based, Plasmodium falciparum
Method: The P. falciparum strains are cultured continuously according to Trager and Jensen's method 5, with the following modifications 6: the parasites are maintained in human red blood cells (O±), diluted to 1% haematocrit in RPMI 1640 medium supplemented with 25 mM Hepes+30 mM NaHCO3 and complemented with 5% AB+ human serum. The parasite populations are synchronised over a 4 hour period by flotation with a gelatine solution, followed by lysis with 5% D-sorbitol 7,8. […]. The anti-malarial activity tests are performed using Desjardins' radioactive micromethod 11. The tests are performed in triplicate, in 96-well microplates, the readings being at 1% haematocrit and 0.5-1% parasitaemia. For each test, the parasites are incubated with decreasing concentrations of drug for either 32 hours and 72 hours (4 wells contain chloroquine diphosphate as a reference). The first dilution of the drug is performed at 10 mg/ml in dimethylsulphoxide and the following dilutions are made with RPMI 1640. The parasite growth is measured with the incorporation of tritiated hypoxanthine compared to incorporation in the absence of drug (taken to be 100%). 12 and the IC50 values are determined graphically by plotting the percentage of inhibition as a function of the drug concentration.

[2] = tested on: three Plasmodium falciparum strains; assay: Anti-malarial activity, summary over the Nigerian, FcB1 and FcM29 strains; type: cell-based; details: susceptible and resistant strains
Method: (§1) The parasite populations are synchronised over a 4 hour period by flotation with a gelatine solution, followed by lysis with 5% D-sorbitol 7,8. […] The anti-malarial activity tests are performed using Desjardins' radioactive micromethod 11. The tests are performed in triplicate, in 96-well microplates, the readings being at 1% haematocrit and 0.5-1% parasitaemia. For each test, the parasites are incubated with decreasing concentrations of drug for either 32 hours and 72 hours (4 wells contain chloroquine diphosphate as a reference). […] The parasite growth is measured with the incorporation of tritiated hypoxanthine compared to incorporation in the absence of drug (taken to be 100%). 12 and the IC50 values are determined graphically by plotting the percentage of inhibition as a function of the drug concentration.

[3] = tested on: P. falciparum Nigerian (chloroquine susceptible strain); assay: Anti-malarial activity on P. falciparum Nigerian strain, tritiated hypoxanthine incorporation; type: cell-based, Plasmodium falciparum
Method: as §1

[4] = tested on: P. falciparum FcM29-Cameroon (highly chloroquine resistant strain); assay: Anti-malarial activity on P. falciparum FcM29-Cameroon strain, tritiated hypoxanthine incorporation; type: cell-based, Plasmodium falciparum
Method: as §1

[5] = tested on: P. vinckei; assay: 4 day test in mice infected with P. vinckei; type: in vivo; details: intraperitoneal route, for 2 months
[6] = Toxicity after administration to healthy mice; details: 100 mg/kg/day oral route, three consecutive days
[7] = tested on: P. falciparum in culture; assay: In vitro activity on P. falciparum in culture; type: cell-based; details: Plasmodium falciparum, read-out: LC50
[8] = tested on: E. coli GE864; assay: Mutagenicity, SOS response (DNA repair induction) in E. coli GE864; type: cell-based; details: E. coli GE864, 5, 10, 15 and 20 μM; control 3 μM mitomycin C
[9] = tested on: human Plasmodium falciparum isolates; assay: Activity on human Plasmodium falciparum isolates; type: cell-based
Method: Trioxaquine-citrate 4, referred to as DU-1102, was tested on human Plasmodium falciparum isolates, some of which were chloroquine- and/or pyrimethamine-resistant.

[10] = tested on: P. falciparum FcB1-Colombia (chloroquine resistant strain); details: read-out: IC50 for chloroquine, FcB1-Columbia strain, literature refs 9,10; cited from earlier work
[11] = tested on: P. falciparum FcM29-Cameroon (highly chloroquine resistant strain); details: read-out: IC50 for chloroquine, literature refs 9,10; cited from earlier work
[12] = FcB1-Colombia (CQR), 72 hrs, read-out: IC50
[13] = Nigerian (CQS), 32 hrs, read-out: IC50
[14] = FcB1-Colombia (CQR), 32 hrs, read-out: IC50
[15] = Nigerian (CQS), 72 hrs, read-out: IC50

SMILES: Clc1ccc2c(NCCNC3CCC4(CC3)OOC3(c5ccccc5)CC(c5ccccc5)=CC3O4)ccnc2c1 (mixture of isomers) [Trioxaquine 3]
IC50 [1, 12]: 9 nM | activity compared with chloroquine and the two fragments [2]: significantly greater than the activity of not only chloroquine, but also of each of the two fragments | IC50 ([3]; Nigerian (CQS), 32 hrs): 1 ng/mL | IC50 [3, 13]: 1.8 nM | IC50 ([4]; FcM29-Cameroon (CQR+), 72 hrs, read-out: IC50): 18 nM

SMILES: Clc1ccc2c(NCCCCNC3CCC4(CC3)OOC3(c5ccccc5)CC(c5ccccc5)=CC3O4)ccnc2c1 (mixture of isomers) [Trioxaquine 9]
activity compared with chloroquine and the two fragments [2]: significantly greater than the activity of not only chloroquine, but also of each of the two fragments

SMILES: CCN(CC)CCCC(C)Nc1ccnc2cc(Cl)ccc12 (centres unmarked) [Chloroquine diphosphate]
IC50 ([1]; Plasmodium falciparum, FCB1, 32 h): 0.075 µg/mL | IC50 ([1]; Plasmodium falciparum, FCB1, 72 h): 0.06 µg/mL and 116 nM | IC50 ([3]; Plasmodium falciparum, 32 h): 0.045 µg/mL and 87 nM | IC50 ([3]; Plasmodium falciparum, 72 h): 0.01 µg/mL and 19 nM | IC50 ([4]; Plasmodium falciparum, 32 h): 0.1 µg/mL and 194 nM | IC50 ([4]; Plasmodium falciparum, 72 h): 0.08 µg/mL and 155 nM

SMILES: CC(C)C1=CC2OC3(CCC(NCCNc4ccnc5cc(Cl)ccc45)CC3)OOC2(C)CC1.O=C(O)CC(O)(CC(=O)O)C(=O)O.O=C(O)CC(O)(CC(=O)O)C(=O)O (centres unmarked) [DU-1302]
re-emergence [5]: no observable re-emergence | apparent toxicity [6]: does not show any apparent toxicity | LC50 [7]: 6 nM | mutagenicity, induction of DNA repair (SOS response) [8]: Absence of mutagenicity

IC50 ([1]; Plasmodium falciparum, FcB1-Colombia (CQR), 32 hrs, read-out: IC50): 0.035 µg/mL | IC50 ([1]; Plasmodium falciparum, FcB1-Colombia (CQR), 72 hrs, read-out: IC50): 0.02 µg/mL | IC50 ([3]; Plasmodium falciparum, Nigerian (CQS), 32 hrs, read-out: IC50): 33 ng/mL | IC50 ([3]; Plasmodium falciparum, Nigerian (CQS), 72 hrs, read-out: IC50): 7 ng/mL
SMILES: NCCNc1ccnc2cc(Cl)ccc12 [Quinoline-amine1, 7-chloro-4-[N-(2-aminoethyl)amino]-quinoline]

SMILES: O=C1CCC2(CC1)OOC1(c3ccccc3)CC(c3ccccc3)=CC1O2 (centres unmarked) [Trioxane-ketone 2]
IC50 [1, 14]: 113 nM | IC50 [1, 12]: 36 nM | IC50 [3, 13]: 149 nM | IC50 [3, 15]: 45 nM

SMILES: Clc1ccc2c(NCCNC3CCC4(CC3)OOC3(c5ccccc5)CC(c5ccccc5)=CC3O4)ccnc2c1.O=C(O)CC(O)(CC(=O)O)C(=O)O.O=C(O)CC(O)(CC(=O)O)C(=O)O (centres unmarked) [Trioxaquine 4]
IC50 ([1]; FcB1-Colombia (CQR), 32 hrs): 0.035 µg/mL | IC50 [1, 14]: 37 nM | IC50 ([1]; FcB1-Colombia (CQR), 72 hrs): 0.02 µg/mL | IC50 [1, 12]: 21 nM | IC50 geometric mean [9]: 0.041 µg/mL | relation of activity to susceptibility or resistance to other anti-malarial agents (chloroquine, pyrimethamine) ([9]; listed as DU-1102): independent of their susceptibility or their resistance; also recorded: no correlation | IC50 ([9]; read-out: IC50 geometric mean): 43 nM | activity compared with chloroquine and the two fragments [2]: significantly greater than the activity of not only chloroquine, but also of each of the two fragments | IC50 ([3]; Nigerian (CQS), 32 hrs): 33 ng/mL | IC50 [3, 13]: 35 nM | IC50 ([3]; Nigerian (CQS), 72 hrs): 7 ng/mL | IC50 [3, 15]: 8 nM

SMILES: CCN(CC)CCCC(C)Nc1ccnc2cc(Cl)ccc12 (centres unmarked) [chloroquine]
IC50 [10]: > 100 nM | IC50 [11]: > 100 nM
